The source of these data is PubChem BioAssay (NCI).

Some test systems named below: EKVX NSCLC; HCT-116 colon; MCF7 breast; MDA-MB-231 breast; MOLT-4 leukemia; PC-3 prostate; SNB-19 CNS; SW-620 colon; RXF 393 renal; SNB-75 CNS.
What all share (assay): DTP human tumour cell line panel, 48 h

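The compound was tested at five concentrations on cells cultured in 96-well plates, with a 48-hour exposure period. TGI: concentration producing complete growth inhibition.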

What is called TGI is the concentration at which net growth stops. Low readings indicate more potent growth arrest, high ones less potent growth arrest.

With `CC(C)(C)OC(=O)C1C(=O)NC(=O)CC1C(COCc1ccccc1)OCc1ccccc1` (centres undefined), the TGI came to 55.5 µM in the test with EKVX NSCLC; 32.7 µM in the test on HCT-116 colon; 57.7 µM in the test with MCF7 breast; 36.4 µM with MDA-MB-231 breast; 52.9 µM with MOLT-4 leukemia; 27.2 µM in the test on PC-3 prostate. Moreover, the TGI in the test on SNB-19 CNS was greater than 100 µM; in the test on SW-620 colon it was 65.1 µM.

`COC(=O)C1=C(C)NC(C)=C([N+](=O)[O-])C1c1cccc(N=O)c1` (centres undefined): the TGI in the test with EKVX NSCLC is 41.2 µM; with HCT-116 colon, 23 µM; in the test on MCF7 breast, 38.5 µM; with MDA-MB-231 breast it was 32.6 µM; with MOLT-4 leukemia, greater than 100 µM; in the test on PC-3 prostate it was 32.9 µM. Moreover, the TGI in the test on RXF 393 renal was 27.6 µM; with SNB-19 CNS it was greater than 100 µM; in the test on SW-620 colon it was 13.3 µM.

As to `O=C1CS(=O)C23c4cc5ccccc5n4CCC2CCCN13` (centres undefined), the TGI in the test with EKVX NSCLC, in the test on HCT-116 colon, in the test on MCF7 breast, with MDA-MB-231 breast, with MOLT-4 leukemia and in the test on PC-3 prostate was greater than 100 µM in each case. Also, the TGI in the test on RXF 393 renal, in the test on SNB-19 CNS and in the test with SW-620 colon was greater than 100 µM each time.

Regarding `COC(=O)C1(Cc2ccc3c(c2)CCC3)Cc2ccccc2C1=O` (centres undefined), the concentration for total growth inhibition (TGI) was 73.7 µM in the test with EKVX NSCLC; 46.6 µM with HCT-116 colon; 70.1 µM in the test with MCF7 breast; greater than 100 µM in the test with MDA-MB-231 breast; 52.3 µM in the test on MOLT-4 leukemia; greater than 100 µM in the test on PC-3 prostate. Further, the total growth inhibition concentration (TGI) in the test on SNB-19 CNS, in the test with SNB-75 CNS and in the test with SW-620 colon was greater than 100 µM each time.

Turning to `CC12CC1C(c1cccc([N+](=O)[O-])c1)(c1cccc([N+](=O)[O-])c1)N=N2` (centres undefined), the TGI in the test on EKVX NSCLC was greater than 100 µM; in the test with HCT-116 colon, 33.8 µM; in the test on MCF7 breast, greater than 100 µM; in the test with MDA-MB-231 breast it was 39.1 µM; with MOLT-4 leukemia, greater than 100 µM; in the test on PC-3 prostate it was 88.8 µM. In addition, the TGI with SNB-19 CNS, in the test on SNB-75 CNS and in the test with SW-620 colon was greater than 100 µM each time.

For `O=C(c1ccccc1)N1C(=S)N=C(Nc2ccccc2)C1=Nc1ccccc1`, the TGI in the test on EKVX NSCLC, with HCT-116 colon, in the test with MDA-MB-231 breast, with MOLT-4 leukemia, with PC-3 prostate and with RXF 393 renal was greater than 100 µM each time. The concentration for total growth inhibition (TGI) in the test on SNB-19 CNS, in the test on SNB-75 CNS and in the test with SW-620 colon was greater than 100 µM in each case.

As for `CCCCN(CCCC)C(=C(C(Cl)=C(Cl)Cl)[N+](=O)[O-])N(CCCC)CCCC`, the TGI with EKVX NSCLC, in the test on HCT-116 colon, in the test on MDA-MB-231 breast, in the test with PC-3 prostate, in the test on SNB-19 CNS and in the test on SNB-75 CNS was greater than 100 µM each time.

Turning to `Nc1nc(Nc2ccccc2)sc1C(=O)c1c[nH]c2ccccc12`, the TGI in the test on EKVX NSCLC came out at 27.4 µM; in the test with HCT-116 colon it was 19.5 µM; with MCF7 breast, 26.9 µM; with MDA-MB-231 breast it was 32.3 µM; in the test with MOLT-4 leukemia it was 25.8 µM; in the test on PC-3 prostate, 25.3 µM. Further, the TGI in the test with RXF 393 renal stood at 23.1 µM; in the test with SNB-19 CNS it was 20.3 µM; with SW-620 colon it was 31.2 µM.

As for `COc1cc(CNc2nc3cc(C(F)(F)F)ccc3nc2-c2ccccc2)cc(OC)c1OC`, the TGI is 50.2 µM in the test with EKVX NSCLC; greater than 100 µM with HCT-116 colon; 22.4 µM in the test with MCF7 breast; 67.5 µM in the test with MDA-MB-231 breast; greater than 100 µM in the test with MOLT-4 leukemia; 51.7 µM with RXF 393 renal. Moreover, the TGI in the test with SNB-19 CNS was greater than 100 µM; in the test on SNB-75 CNS, 44 µM; in the test with SW-620 colon, greater than 100 µM.

For the molecule `COc1cc(CC(C)N)ccc1O` (centres undefined), the TGI in the test with EKVX NSCLC, with HCT-116 colon, in the test with MCF7 breast, with MOLT-4 leukemia, with PC-3 prostate and in the test on RXF 393 renal was greater than 100 µM each time. In addition, the TGI with SNB-19 CNS, in the test with SNB-75 CNS and in the test with SW-620 colon was greater than 100 µM throughout.

For `O=C(O)CSC(NC(=O)C(C(F)(F)F)C(F)(F)F)(C(F)(F)F)C(F)(F)F`, the TGI in the test on EKVX NSCLC, with HCT-116 colon, with MOLT-4 leukemia, in the test with PC-3 prostate, in the test with RXF 393 renal and in the test on SNB-19 CNS was greater than 100 µM each time. The TGI in the test with SNB-75 CNS and in the test on SW-620 colon was greater than 100 µM each time.

With `CCCOC(=O)NC(C)C(=O)NC(CCC(=O)NC(CCCC(N)C(=O)O)C(=O)NC(C)C(=O)O)C(=O)O` (centres undefined), the TGI was greater than 100 µM in the test on EKVX NSCLC; greater than 100 µM in the test on HCT-116 colon; greater than 100 µM in the test with MCF7 breast; 50.8 µM with MDA-MB-231 breast; 41.9 µM in the test on MOLT-4 leukemia; 53.7 µM in the test with PC-3 prostate. The results for the TGI in the test with SNB-19 CNS and in the test with SW-620 colon were 71 µM and 62.3 µM, respectively.

Turning to `CCOC(=O)C(C)c1nc2c(Cl)c3ncccc3cc2[nH]c1=O` (centres undefined), the TGI in the test on EKVX NSCLC, in the test with HCT-116 colon, in the test on MDA-MB-231 breast, with MOLT-4 leukemia, in the test on PC-3 prostate and in the test on RXF 393 renal was greater than 100 µM each time. The concentration for total growth inhibition (TGI) in the test with SNB-19 CNS, with SNB-75 CNS and in the test on SW-620 colon was greater than 100 µM in each case.

Consider `O=C(CCc1cccc(O)c1)NCCCNC(=O)CCc1cccc(O)c1`, for which the TGI with EKVX NSCLC, with HCT-116 colon, in the test with MCF7 breast, in the test with MDA-MB-231 breast, in the test with MOLT-4 leukemia and in the test on PC-3 prostate was greater than 100 µM in each case. For the same molecule, the TGI with RXF 393 renal, in the test on SNB-19 CNS and with SW-620 colon was greater than 100 µM each time.

Consider `COc1cc([C@@H]2c3cc4c(cc3[C@@H](c3c(O)cc(O)c5c3O[C@H](c3ccc(O)c(O)c3)[C@@H](O)C5)[C@H]3COC(=O)[C@H]23)OCO4)cc(OC)c1O`, for which the TGI with EKVX NSCLC, with HCT-116 colon, in the test with MCF7 breast, with MDA-MB-231 breast, in the test with MOLT-4 leukemia and in the test on PC-3 prostate was greater than 100 µM each time. For the same molecule, the TGI in the test on RXF 393 renal, with SNB-19 CNS and in the test on SW-620 colon was greater than 100 µM each time.
